Patent publication US20100226917A1, “METHODS FOR THE TREATMENT OF HEMATOLOGIC MALIGNANCIES” (AstraZeneca AB, priority 2007, published 2010)

Legend:
[1] = tested on: Mec1 chronic B cell leukemia cell line; assay: Cell Titer-Glo luminescent cell viability assay, Mec1 cell line; assay type: cell-based; settings: Homo sapiens; Mec1, 48 hour treatment
Procedure: (§1) Chronic B cell leukemia cell lines (JVM2 and Mec1) (American Type Culture Collection (ATCC), Manassas, Va.) were plated in 96 well plates and 24 hours later were treated with increasing concentrations of a CHK1 inhibitor (Formula 1.1). Following 48 hour treatment cell viability was measured using Cell Titer-Glo® luminescent cell viability assay (Promega, Madison, Wis.).

[2] = tested on: marrow mononuclear cells from patients with acute myelogenous leukemia; assay: Colony formation of AML patient marrow mononuclear cells in methylcellulose; assay type: cell-based, human; settings: 30-300 nM, 48-hour incubation, colonies scored after 14 days, 9 AML patient samples
Procedure: Marrow mononuclear cells from 9 patients with acute myelogenous leukemia were isolated by sedimentation on Ficoll-Hypaque density gradients (English et al. Single-Step Separation of Red Blood Cells. Granulocytes and Mononuclear Leukocytes on Discontinuous Density Gradients of Ficoll-Hypaque. Journal of Immunological Methods, 5: 249-252, 1974). After removal of an aliquot for staining to determine the percentage of blasts, replicate aliquots containing 1×10^6 cells in 1 ml Improved Dulbecco's Medium containing 20% heat-inactivated fetal bovine serum, 50 units/ml penicillin G, 50 μg/ml streptomycin and 2 mM glutamine (medium A) were treated with diluent (0.2% dimethyl sulfoxide), increasing concentrations of cytarabine alone (25-300 nM), increasing concentrations of a CHK-1 inhibitor (formula 1.1) (30-300 nM), or increasing concentrations of cytarabine in the presence of 100 nM of a CHK-1 inhibitor (Formula 1.1). […] Following a 14-day incubation at 37° C., colonies containing ≧50 cells were scored on an inverted microscope using established criteria (Eaves, C. and Lambie, K. Atlas of human hematopoietic colonies. Vancouver: StemCell Technologies Inc., 1995). […]

[3] = tested on: tumor cells isolated from CLL patients; assay: Ex vivo cell viability (Cell Titer-Glo) of mononuclear cells isolated from CLL patient blood; assay type: cell-based, human; settings: 48 hour treatment; for IC50: Homo sapiens
Procedure: Blood samples (10 mls) were collected from CLL patients and placed on ice. Whole blood was then diluted with phosphate buffered saline (PBS) (2-3 fold dilution) and carefully layered over 12 mls Ficoll-paque (GE Healthcare, Westborough, Mass.) in a 50 ml conical tube. Samples were then centrifuged at 3500 rpm for 35 minutes without break at room temperature. Plasma was removed and opaque interphase containing mononuclear cells was collected and placed into a clean conical centrifuge tube. Cells were then washed twice with PBS with 1% fetal bovine serum (FBS). Following final wash, cells were resuspended in 5˜10 mls RPMI 1640 (Invitrogen, Grand Island, N.Y.) plus 10% fetal calf serum (FCS) medium. Cells were then counted by Trypan blue exclusion method and viability and purity assessed.
Cells were then plated into 96 well plates (1×10^5 cells/well) and incubated overnight in a drug free medium. The next morning cells were treated with fludarabine (1, 3 and 10 μM), gemcitabine (0.1 and 1 μM), CHK1 inhibitor of Formula 1.1 (0.01, 0.1 and 0.5 μM) or the combination of fludarabine and CHK1 inhibitor or gemcitabine and CHK1 inhibitor. […] Following 48 hour treatment, cell viability was measured using Cell Titer-Glo® luminescent cell viability assay (Promega, Madison, Wis.).

[4] = tested on: JVM2 chronic B cell leukemia cell line; assay: Cell Titer-Glo luminescent cell viability assay, JVM2 cell line; assay type: cell-based; settings: Homo sapiens, JVM-2; JVM2, 48 hour treatment
Procedure: as §1

CD20 antigen = target: T1, CD20 antigen (Homo sapiens, UniProt P11836); settings: read-out: binding affinity; cited from earlier work
T1 sequence (P11836 1-297): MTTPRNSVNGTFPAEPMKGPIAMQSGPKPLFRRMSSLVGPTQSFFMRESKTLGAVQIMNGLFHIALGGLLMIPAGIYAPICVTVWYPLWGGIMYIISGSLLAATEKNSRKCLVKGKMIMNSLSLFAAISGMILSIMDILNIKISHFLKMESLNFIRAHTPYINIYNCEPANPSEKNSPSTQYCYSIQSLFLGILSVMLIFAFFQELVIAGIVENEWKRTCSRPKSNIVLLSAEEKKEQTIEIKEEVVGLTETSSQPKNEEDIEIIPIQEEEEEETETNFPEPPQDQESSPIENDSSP

[5] = relapsed patient who one week prior received rituximab treatment
[6] = newly diagnosed patient who had not received previous treatment

Question: Which GI50 [1] does the source give for `NC(=O)Nc1cc(-c2cccc(F)c2)sc1C(=O)N[C@H]1CCCNC1` [Formula 1.1, 5-(3-Fluoro-phenyl)-3-ureido-thiophene-2-carboxylic acid (S)-piperidin-3-ylamide] here?
Answer: 79 nM

Question: And the “samples showing single agent sensitivity” value [2]?
Answer: Four out of nine samples

Question: What about the IC50 [3, 5] of the same compound?
Answer: 11 nM

Question: What about the “response (cell viability)” value [3, 6] of the same compound?
Answer: not

Question: What about the GI50 [4] of the same compound?
Answer: 13 nM

Question: What does the source list for `Nc1nc(F)nc2c1ncn2[C@@H]1O[C@H](CO)[C@@H](O)[C@@H]1O` [fludarabine]?
Answer: IC50 [3, 6]: 560 nM; IC50 [3, 5]: 5100 nM

Question: For `Nc1ccn([C@@H]2O[C@H](CO)[C@@H](O)C2(F)F)c(=O)n1` [gemcitabine], which “response (cell viability)” value [3, 6] is on record?
Answer: not

Question: What about the “response (cell viability)” value [3, 5] of the same compound?
Answer: not

Question: Which Kd (CD20 antigen) does the source give for rituximab here?
Answer: ~8 nM
